# Experimental data published in patent US20140113874A1, “Modified Compstatin With Improved Stability And Binding Properties” (THE TRUSTEES OF THE UNIVERSITY OF PENNSYLVANIA, priority 2010, published 2014).
# Numbered stars: 1 amine (or outer) side, 2 acyl side, 3 side chain; on linkers, the order of the positions; unused ones are H or OH. Bridge positions count the residues as written; N and C are the ends. Square brackets hold non-standard residues; d marks the D form. Peptide text beside a SMILES is read from it. Trp(1-Me) = Cn1cc(C[C@H](N)C(=O)O)c2ccccc21; Abu(4-yl) = O=C([C@H](CC[*:3])N[*:1])[*:2]; NMeI = CC[C@H](C)[C@H](NC)C(=O)O; Sar = CNCC(=O)O
# B1: CP20 delta-Cth (delta-cystathionine CP20 compstatin analog) (peptide)
# peptide: ICVWQDWGAHRCI
# modifications: N-terminal acetyl (Ac-Ile1); 1-methyl-Trp at position 4; N-methyl-Gly at position 8; N-methyl-Ile at position 13; C-terminal amide (-NH2); C2-C12 thioether bond forming delta-cystathionine
# B2: CP20 compstatin analog (disulfide control) (peptide)
# peptide: Ac-ICV[Trp(1-Me)]QDW[Sar]AHRC[NMeI]-NH2
# modifications: disulfide 2-12
# SMILES: CC[C@H](C)[C@H](NC(C)=O)C(=O)N[C@H]1CSSC[C@@H](C(=O)N(C)[C@H](C(N)=O)[C@@H](C)CC)NC(=O)[C@H](CCCNC(=N)N)NC(=O)[C@H](Cc2c[nH]cn2)NC(=O)[C@H](C)NC(=O)CN(C)C(=O)[C@H](Cc2c[nH]c3ccccc23)NC(=O)[C@H](CC(=O)O)NC(=O)[C@H](CCC(N)=O)NC(=O)[C@H](Cc2cn(C)c3ccccc23)NC(=O)[C@H](C(C)C)NC1=O
# Experiments:
# [1] = test system: classical pathway of complement activation; assay: ELISA-based complement inhibition assay (antigen-antibody complex initiated, C3b deposition); format: biochemical; conditions: for relative activity (rank order) in inhibition of antigen-antibody complex-initiated complement activation: FIG. 4, representative result; for IC50: read-out: IC50, concentration at which the peptides inhibit complement activation by 50%, plasma 1:80 in VB++, average of five datasets
# Method: An ELISA-based assay was performed to assess the complement inhibitory ability of the compstatin analogs. Briefly, an antigen-antibody complex was used as an initiator of the classical pathway of complement activation. […] Incubation followed to allow complement activation. The deposition of C3b on the plate was measured by a polyclonal anti-C3 antibody. The percentage of inhibition was plotted against the compstatin concentration and fitted to a logistic dose-response function using OriginPro 8.
# C3b = C3b (Homo sapiens, UniProt P01024); assay: Biacore SPR kinetic analysis on captured biotinylated C3b; conditions: 1:1 binding model; average of multiple datasets
# Method: The interaction of the compstatin analogs with C3b was characterized using a Biacore 3000 instrument (GE Healthcare, Corp., Piscataway, N.J.). The running buffer was PBS, pH 7.4 (10 mM sodium phosphate, 150 mM NaCl) with 0.005% Tween-20. Biotinylated C3b was captured site-specifically on a streptravidin chip at about 3000, 4000 and 5000 RU density; an untreated flowcell was used as a reference surface. For kinetic analysis, sets of five samples of increasing concentrations were injected over the chip surface one after the other in a single cycle. […] The data analysis was performed using BiaEvaluation. The processed signals were fitted to a 1:1 binding model and kinetic constants were extracted. […] 2 min injections at 30 ul/min were performed, after which a 3 min dissociation was monitored. […] Data analysis followed using Scrubber (BioLogic Software, Campbell, Australia). The processed signals were globally fitted to a Langmuir 1:1 binding isotherm and kinetic constants were extracted.
# Biotinylated C3b = Biotinylated C3b (UniProt P01024); assay: SPR (Biacore 3000), single-cycle kinetics, peptide over biotinylated C3b captured on streptavidin chip, 1:1 model
# [2] = target: T1, Complement C3 (in plasma) (UniProt P01024 23-1663, limits assumed); assay: cell-based or functional assay
# [3] = target: T1, Complement C3 (in plasma); assay: cell-based or functional assay; remark: listed apart in the source
# T1 sequence (P01024 23-1663 limits assumed): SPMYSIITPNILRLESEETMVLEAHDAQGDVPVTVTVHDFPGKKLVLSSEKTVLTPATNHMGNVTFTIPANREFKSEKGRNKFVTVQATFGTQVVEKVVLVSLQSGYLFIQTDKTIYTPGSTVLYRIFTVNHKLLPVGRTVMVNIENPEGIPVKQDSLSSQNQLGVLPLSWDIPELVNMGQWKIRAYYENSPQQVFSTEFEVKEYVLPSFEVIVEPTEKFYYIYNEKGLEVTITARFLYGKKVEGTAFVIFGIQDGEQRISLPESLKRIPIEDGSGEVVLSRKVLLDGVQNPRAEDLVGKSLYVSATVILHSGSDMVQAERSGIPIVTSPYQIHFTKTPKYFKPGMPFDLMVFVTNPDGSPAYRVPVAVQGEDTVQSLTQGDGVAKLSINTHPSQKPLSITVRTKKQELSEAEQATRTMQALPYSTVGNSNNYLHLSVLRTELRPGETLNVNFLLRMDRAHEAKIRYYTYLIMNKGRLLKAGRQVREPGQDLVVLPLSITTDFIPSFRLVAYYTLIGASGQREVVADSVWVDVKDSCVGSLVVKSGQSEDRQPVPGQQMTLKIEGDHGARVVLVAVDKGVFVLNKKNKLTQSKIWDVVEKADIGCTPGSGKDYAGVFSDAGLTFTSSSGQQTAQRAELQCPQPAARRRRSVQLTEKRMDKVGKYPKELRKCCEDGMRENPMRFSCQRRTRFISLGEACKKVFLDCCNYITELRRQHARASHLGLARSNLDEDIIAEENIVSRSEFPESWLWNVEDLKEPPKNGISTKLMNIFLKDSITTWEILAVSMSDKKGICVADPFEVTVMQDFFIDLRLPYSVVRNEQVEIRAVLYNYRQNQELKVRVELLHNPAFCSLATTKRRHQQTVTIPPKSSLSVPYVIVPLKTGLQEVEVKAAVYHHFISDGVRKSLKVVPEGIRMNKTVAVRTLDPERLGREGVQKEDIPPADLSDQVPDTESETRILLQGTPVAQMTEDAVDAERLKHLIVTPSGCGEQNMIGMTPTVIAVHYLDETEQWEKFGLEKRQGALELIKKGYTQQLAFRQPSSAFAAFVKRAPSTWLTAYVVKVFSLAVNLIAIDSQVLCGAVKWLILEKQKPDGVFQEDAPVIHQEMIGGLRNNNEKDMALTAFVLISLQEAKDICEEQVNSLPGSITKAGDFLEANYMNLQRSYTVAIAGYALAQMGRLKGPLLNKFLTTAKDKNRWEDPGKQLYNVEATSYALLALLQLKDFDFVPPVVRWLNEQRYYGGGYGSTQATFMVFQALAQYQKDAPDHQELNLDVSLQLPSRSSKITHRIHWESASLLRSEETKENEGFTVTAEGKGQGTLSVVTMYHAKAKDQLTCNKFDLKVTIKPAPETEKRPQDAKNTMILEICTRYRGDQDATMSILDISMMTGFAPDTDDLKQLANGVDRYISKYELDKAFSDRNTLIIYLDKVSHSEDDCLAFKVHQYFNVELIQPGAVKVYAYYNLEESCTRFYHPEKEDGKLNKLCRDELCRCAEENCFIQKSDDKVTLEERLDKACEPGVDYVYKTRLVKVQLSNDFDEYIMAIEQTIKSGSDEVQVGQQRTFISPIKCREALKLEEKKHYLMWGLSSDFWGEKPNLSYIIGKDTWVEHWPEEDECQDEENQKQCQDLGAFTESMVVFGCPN
# Chain of C3b (P01024 23-667 limits assumed): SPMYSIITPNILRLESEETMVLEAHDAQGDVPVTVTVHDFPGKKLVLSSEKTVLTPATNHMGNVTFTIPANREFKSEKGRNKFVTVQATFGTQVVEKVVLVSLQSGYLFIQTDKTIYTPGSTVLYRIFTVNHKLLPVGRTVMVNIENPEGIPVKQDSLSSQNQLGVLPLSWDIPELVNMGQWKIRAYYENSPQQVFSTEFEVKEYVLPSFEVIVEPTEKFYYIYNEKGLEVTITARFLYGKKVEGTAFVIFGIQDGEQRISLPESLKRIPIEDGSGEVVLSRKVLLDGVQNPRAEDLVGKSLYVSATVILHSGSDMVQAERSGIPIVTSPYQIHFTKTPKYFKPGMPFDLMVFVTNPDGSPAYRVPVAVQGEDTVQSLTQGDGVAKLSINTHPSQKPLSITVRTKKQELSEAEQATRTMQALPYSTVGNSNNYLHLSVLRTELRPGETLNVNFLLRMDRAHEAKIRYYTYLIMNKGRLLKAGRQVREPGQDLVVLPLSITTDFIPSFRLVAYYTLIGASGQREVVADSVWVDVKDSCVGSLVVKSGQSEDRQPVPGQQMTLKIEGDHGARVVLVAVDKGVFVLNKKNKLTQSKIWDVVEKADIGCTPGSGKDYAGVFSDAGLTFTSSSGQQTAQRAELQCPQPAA
# Chain of C3b (P01024 749-1663 partner limits assumed): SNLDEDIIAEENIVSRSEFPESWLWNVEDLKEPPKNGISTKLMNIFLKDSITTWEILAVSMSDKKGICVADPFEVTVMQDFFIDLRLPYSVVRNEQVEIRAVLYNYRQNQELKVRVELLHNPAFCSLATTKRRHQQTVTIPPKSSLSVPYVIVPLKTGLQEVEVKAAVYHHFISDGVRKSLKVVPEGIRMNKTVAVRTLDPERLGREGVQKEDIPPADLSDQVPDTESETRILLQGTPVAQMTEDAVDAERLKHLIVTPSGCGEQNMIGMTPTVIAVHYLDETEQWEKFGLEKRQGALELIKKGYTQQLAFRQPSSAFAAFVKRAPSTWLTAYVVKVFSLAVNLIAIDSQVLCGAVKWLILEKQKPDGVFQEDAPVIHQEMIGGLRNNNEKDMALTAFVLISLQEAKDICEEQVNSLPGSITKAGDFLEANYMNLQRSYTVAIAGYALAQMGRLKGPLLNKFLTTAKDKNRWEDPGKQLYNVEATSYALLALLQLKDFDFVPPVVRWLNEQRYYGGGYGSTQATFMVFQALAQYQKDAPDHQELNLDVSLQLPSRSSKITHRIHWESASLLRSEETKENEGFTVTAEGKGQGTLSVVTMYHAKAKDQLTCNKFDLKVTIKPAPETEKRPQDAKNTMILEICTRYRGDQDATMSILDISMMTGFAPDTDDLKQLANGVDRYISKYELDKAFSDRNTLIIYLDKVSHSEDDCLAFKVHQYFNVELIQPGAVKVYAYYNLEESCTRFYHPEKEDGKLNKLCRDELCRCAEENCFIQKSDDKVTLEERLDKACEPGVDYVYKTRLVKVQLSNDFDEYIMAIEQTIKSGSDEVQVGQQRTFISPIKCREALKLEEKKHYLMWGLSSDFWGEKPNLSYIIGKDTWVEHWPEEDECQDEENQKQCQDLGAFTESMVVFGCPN
molecule,measurement,setting,value
"CC[C@H](C)[C@H](NC(C)=O)C(=O)N[C@H]1CSSC[C@@H](C(=O)N(C)[C@H](C(N)=O)[C@@H](C)CC)NC(=O)[C@H](CCCNC(=N)N)NC(=O)[C@H](Cc2c[nH]cn2)NC(=O)[C@H](C)NC(=O)CN(C)C(=O)[C@H](Cc2c[nH]c3ccccc23)NC(=O)[C@H](CC(=O)O)NC(=O)[C@H](CCC(N)=O)NC(=O)[C@H](Cc2cn(C)c3ccccc23)NC(=O)[C@H](C(C)C)NC1=O [CP20, AC-Ic[CV(^1-MeW)QDW(^N-MeG)AHRC](^N-MeI)-NH2, reference compound]",relative activity (rank order) in inhibition of antigen-antibody complex-initiated complement activation,[1],CP20>delta-Cth CP20>4W9A>delta-Cth>gamma-Cth
same,IC50,[1],130 ± 50 nM
same,kd,C3b,0.4 ± 0.1 10^−2 s^−1
"CC[C@H](C)[C@H](NC(C)=O)C(=O)N[C@H]1CSCC[C@@H](C(=O)N(C)[C@H](C(N)=O)[C@@H](C)CC)NC(=O)[C@H](CCCNC(=N)N)NC(=O)[C@H](Cc2c[nH]cn2)NC(=O)[C@H](C)NC(=O)CN(C)C(=O)[C@H](Cc2c[nH]c3ccccc23)NC(=O)[C@H](CC(=O)O)NC(=O)[C@H](CCC(N)=O)NC(=O)[C@H](Cc2cn(C)c3ccccc23)NC(=O)[C@H](C(C)C)NC1=O [Delta-Cth CP20, Ac-Ic[CV(^1-MeW)QDW(^N-MeG)AHRC](^N-MeI)-NH2] (Ac-ICV[Trp(1-Me)]QDW[Sar]AHR[Abu(4-yl)][NMeI]-NH2; thioether 2-12)",relative activity (rank order) in inhibition of antigen-antibody complex-initiated complement activation,[1],CP20>delta-Cth CP20>4W9A>delta-Cth>gamma-Cth
same,IC50,[1],260 ± 90 nM
same,kd,C3b,1.5 ± 0.4 10^−2 s^−1
CC[C@H](C)[C@H](NC(C)=O)C(=O)N[C@H]1CSCC[C@@H](C(=O)N[C@H](C(N)=O)[C@@H](C)O)NC(=O)[C@H](CCCNC(=N)N)NC(=O)[C@H](Cc2c[nH]cn2)NC(=O)[C@H](C)NC(=O)CNC(=O)[C@H](Cc2c[nH]c3ccccc23)NC(=O)[C@H](CC(=O)O)NC(=O)[C@H](CCC(N)=O)NC(=O)[C@H](Cc2c[nH]c3ccccc23)NC(=O)[C@H](C(C)C)NC1=O [Delta-Cth] (Ac-ICVWQDWGAHR[Abu(4-yl)]T-NH2; thioether 2-12),kd,C3b,11 ± 1.9 10^−2 s^−1
CC[C@H](C)[C@H](NC(C)=O)C(=O)N[C@H]1CCSC[C@@H](C(=O)N[C@H](C(N)=O)[C@@H](C)O)NC(=O)[C@H](CCCNC(=N)N)NC(=O)[C@H](Cc2c[nH]cn2)NC(=O)[C@H](C)NC(=O)CNC(=O)[C@H](Cc2c[nH]c3ccccc23)NC(=O)[C@H](CC(=O)O)NC(=O)[C@H](CCC(N)=O)NC(=O)[C@H](Cc2c[nH]c3ccccc23)NC(=O)[C@H](C(C)C)NC1=O [Gamma-Cth] (Ac-I[Abu(4-yl)]VWQDWGAHRCT-NH2; thioether 2-12),kd,C3b,46.8 ± 5.7 10^−2 s^−1
CP20 compstatin analog (disulfide control) (peptide),Kd,Biotinylated C3b,2.4 nM
same,koff,Biotinylated C3b,0.004 s⁻¹
same,kon,Biotinylated C3b,1.86e+06 M⁻¹ s⁻¹
B1,IC50 (read off the curve),[2],~300 nM
same,"IC50, inhibition of antigen-antibody complex-initiated (classical pathway) complement activation, C3b deposition ELISA",[3],260 nM
B2,IC50 (read off the curve),[2],~100 nM
same,"IC50, inhibition of antigen-antibody complex-initiated (classical pathway) complement activation, C3b deposition ELISA",[3],130 nM
